Paper PMC3711097 (Molecular bioSystems, 2013)

System: KedF
Assay: continuous spectrophotometric assay with periodate, […] nm
Assay type: biochemical, Streptoalloteichus sp. ATCC 53650
Conditions: 50 mM phosphate pH 8.0, 25 °C, 3 mM sodium periodate

| Structure (SMILES) | Km (4.0 μM KedF) [mM] | Km (9.6 μM KedF) [mM] |
| --- | --- | --- |
| c1ccc([C@H]2CO2)cc1 [(S)-styrene oxide] | 0.91 ± 0.1 |  |
| c1ccc([C@@H]2CO2)cc1 [(R)-styrene oxide] |  | 3.5 ± 0.64 |
